Among the data in patent US11088380B2, “Electrolyte solution for redox flow battery and redox flow battery comprising same” (Seoul National University R&DB Foundation, priority 2013, dated 2021) are solubility values, retold here.

Values after ≈ are worked out from the molar mass of the structure shown.

A short description of the data set: physchem. How it is done:
Menadione purchased from Sigma Aldrich was dissolved in propylene carbonate solution comprising tetrafluoroborate tetraethylammonium and the maximum amount of Menadione that can be dissolved was checked.
1,4-Naphthoquinone purchased from Sigma Aldrich was dissolved in propylene carbonate solution comprising tetrafluoroborate tetraethylammonium and the maximum amount of 1,4-Naphthoquinone that can be dissolved was checked.
N,N,N′N′-tetramethyl-p-phenylenediamine purchased from Alfa aesar was dissolved in propylene carbonate solution comprising tetrafluoroborate tetraethylammonium and the maximum amount of N,N,N′N′-tetramethyl-p-phenylenediamine that can be dissolved was checked.
Tetrathiafulvalene purchased from Sigma Aldrich was dissolved in propylene carbonate solution comprising tetrafluoroborate tetraethylammonium and the maximum amount of tetrathiafulvalene that can be dissolved was checked.
N,N-dimethyl-p-phenylenediamine purchased from Sigma Aldrich was dissolved in propylene carbonate solution comprising tetrafluoroborate tetraethylammonium and the maximum amount of N,N-dimethyl-p-phenylenediamine that can be dissolved was checked.
Triphenylamine purchased from Sigma Aldrich was dissolved in propylene carbonate solution comprising tetrafluoroborate tetraethylammonium and the maximum amount of triphenylamine that can be dissolved was checked.
4-Hydroxydiphenylamine purchased from Sigma Aldrich was dissolved in propylene carbonate solution comprising tetrafluoroborate tetraethylammonium and the maximum amount of 4-hydroxydiphenylamine that can be dissolved was checked.
4-Amino-diphenylamine purchased from Sigma Aldrich was dissolved in propylene carbonate solution comprising tetrafluoroborate tetraethylammonium and the maximum amount of 4-amino-diphenylamine that can be dissolved was checked.
Thianthrene purchased from Aldrich was dissolved in propylene carbonate solution comprising tetrafluoroborate tetraethylammonium and the maximum amount of thianthrene that can be dissolved was checked.

Setting [1] is: organic solvent or mixture, thermodynamic from solid.
The mark [2] stands for this setting: maximum amount dissolved in propylene carbonate solution comprising tetrafluoroborate tetraethylammonium.

As for `c1ccc2c(c1)Sc1ccccc1S2` [Comparative example 2, Thianthrene, reference compound], under setting [1], the solubility was 100 mM (≈ 21.6 mg/mL).

As for `CC1=CC(=O)c2ccccc2C1=O` [Example 2, menadione], the solubility under setting [1] came out at 300 mM (≈ 51.7 mg/mL).

With `O=C1C=CC(=O)c2ccccc21` [Example 3, 1,4-Naphthoquinone], the solubility under setting [1] stood at 500 mM (≈ 79.1 mg/mL).

The molecule `CN(C)c1ccc(N(C)C)cc1` [Example 4, N,N,N′N′-tetramethyl-p-phenylenediamine] returned a solubility under setting [2] of 2000 mM (≈ 329 mg/mL).

With `C1=CSC(=C2SC=CS2)S1` [Example 5, Tetrathiafulvalene], the solubility was 600 mM (≈ 123 mg/mL).

`CN(C)c1ccc(N)cc1` [Example 6, N,N-dimethyl-p-phenylenediamine]: the solubility under setting [1] was found to be 2000 mM (≈ 272 mg/mL).

Turning to `c1ccc(N(c2ccccc2)c2ccccc2)cc1` [Example 7, Triphenylamine], under setting [1], the solubility is below 100 mM.

As for `Oc1ccc(Nc2ccccc2)cc1` [Example 8, 4-hydroxydiphenylamine], the solubility under setting [2] was found to be 4000 mM (≈ 741 mg/mL).

As for `Nc1ccc(Nc2ccccc2)cc1` [Example 9, 4-amino-diphenylamine], the solubility was found to be 4000 mM (≈ 737 mg/mL).

In general, solubility refers to the dissolved amount per volume that the medium holds.
